# Results as given in paper PMC5218480 (PLoS ONE, 2017).
# System: MV-4-11 cells
# Assay: Gene expression microarray analysis (Affymetrix PrimeView) and GSEA
# Format: cell-based, human
# Parameters: RFU PODN (11730768_x_at) / Fold change /veh PODN (11730768_x_at) / RFU LINC00158 (11744669_a_at) / Fold change /veh LINC00158 (11744669_a_at) / RFU DUSP10 (11751237_a_at) / Fold change /veh DUSP10 (11751237_a_at) / RFU ID3 (11757404_x_at) / Fold change /veh ID3 (11757404_x_at) / RFU PLEKHG5 (11737974_s_at) / Fold change /veh PLEKHG5 (11737974_s_at) / RFU LRRC4B (11730491_at) / Fold change /veh LRRC4B (11730491_at) / RFU GIMAP4 (11747438_a_at) / Fold change /veh GIMAP4 (11747438_a_at) / RFU KRT8 (11758183_x_at) / Fold change /veh KRT8 (11758183_x_at) / RFU CNN1 (11734310_a_at) / Fold change /veh CNN1 (11734310_a_at) / RFU VPS37D (11726825_at) / Fold change /veh VPS37D (11726825_at) / RFU C10orf10 (11716522_x_at) / Fold change /veh C10orf10 (11716522_x_at) / RFU KIR2DL2 /// KIR2DL4 /// KIR2DL5A /// KIR2DL5B /// KIR2DS1 /// KIR2DS2 /// KIR2DS3 /// KIR2DS4 /// KIR3DL3 /// KIR3DL3 /// KIR3DS1 (11738374_at) / Fold change /veh KIR2DL2 /// KIR2DL4 /// KIR2DL5A /// KIR2DL5B /// KIR2DS1 /// KIR2DS2 /// KIR2DS3 /// KIR2DS4 /// KIR3DL3 /// KIR3DL3 /// KIR3DS1 (11738374_at) / RFU C1QL1 (11718748_at) / Fold change /veh C1QL1 (11718748_at) / RFU TMPRSS4 (11747572_a_at) / Fold change /veh TMPRSS4 (11747572_a_at) / RFU HAMP (11756126_x_at) / Fold change /veh HAMP (11756126_x_at) / RFU RNFT2 (11725882_a_at) / Fold change /veh RNFT2 (11725882_a_at) / RFU NR4A2 (11747474_a_at) / Fold change /veh NR4A2 (11747474_a_at) / RFU ABCC12 (11746883_a_at) / Fold change /veh ABCC12 (11746883_a_at) / RFU TMEM136 (11760407_x_at) / Fold change /veh TMEM136 (11760407_x_at) / RFU CLDN22 /// WWC2 (11732394_at) / Fold change /veh CLDN22 /// WWC2 (11732394_at) / RFU HLA-DPB1 (11760878_x_at) / Fold change /veh HLA-DPB1 (11760878_x_at) / RFU SPINT1 (11716480_a_at) / Fold change /veh SPINT1 (11716480_a_at) / RFU GAP43 (11754022_s_at) / Fold change /veh GAP43 (11754022_s_at) / RFU A4GNT (11735810_at) / Fold change /veh A4GNT (11735810_at) / RFU PRB3 (11715151_x_at) / Fold change /veh PRB3 (11715151_x_at) / RFU TUBB4B (11761932_at) / Fold change /veh TUBB4B (11761932_at) / RFU CAPN14 (11732068_a_at) / Fold change /veh CAPN14 (11732068_a_at) / RFU TMCC2 (11721928_a_at) / Fold change /veh TMCC2 (11721928_a_at) / RFU IRGQ (11745062_a_at) / Fold change /veh IRGQ (11745062_a_at) / RFU FAM174B (11720279_a_at) / Fold change /veh FAM174B (11720279_a_at) / RFU TMPRSS4 (11748680_a_at) / Fold change /veh TMPRSS4 (11748680_a_at) / RFU FAM212B (11763350_a_at) / Fold change /veh FAM212B (11763350_a_at) / RFU PLEKHG5 (11743358_a_at) / Fold change /veh PLEKHG5 (11743358_a_at) / RFU ZSCAN30 (11745921_a_at) / Fold change /veh ZSCAN30 (11745921_a_at) / RFU CMKLR1 (11741424_a_at) / Fold change /veh CMKLR1 (11741424_a_at) / RFU LOC101060620 /// MAPK8IP1 (11723275_at) / Fold change /veh LOC101060620 /// MAPK8IP1 (11723275_at) / RFU SPTSSB (11747773_x_at) / Fold change /veh SPTSSB (11747773_x_at) / RFU PRSS12 (11739890_at) / Fold change /veh PRSS12 (11739890_at) / RFU BIN1 (11741810_x_at) / Fold change /veh BIN1 (11741810_x_at) / RFU WNT11 (11732464_a_at) / Fold change /veh WNT11 (11732464_a_at) / RFU C10orf10 (11716521_a_at) / Fold change /veh C10orf10 (11716521_a_at) / RFU C5orf56 (11738089_at) / Fold change /veh C5orf56 (11738089_at) / RFU CYB561 (11721691_x_at) / Fold change /veh CYB561 (11721691_x_at) / RFU ANKRD19P (11752326_a_at) / Fold change /veh ANKRD19P (11752326_a_at) / RFU OR2T12 /// OR2T33 /// OR2T8 (11738714_s_at) / Fold change /veh OR2T12 /// OR2T33 /// OR2T8 (11738714_s_at) / RFU VCAN (11748164_a_at) / Fold change /veh VCAN (11748164_a_at) / RFU JSRP1 (11732532_at) / Fold change /veh JSRP1 (11732532_at) / RFU KRTAP10-11 (11738290_x_at) / Fold change /veh KRTAP10-11 (11738290_x_at) / RFU MYO3A (11730013_a_at) / Fold change /veh MYO3A (11730013_a_at) / RFU EBF3 (11725865_a_at) / Fold change /veh EBF3 (11725865_a_at) / RFU CAMK2N1 (11719241_x_at) / Fold change /veh CAMK2N1 (11719241_x_at) / RFU C5orf56 (11738088_a_at) / Fold change /veh C5orf56 (11738088_a_at) / RFU OLFML3 (11715873_a_at) / Fold change /veh OLFML3 (11715873_a_at) / RFU LOC100653217 /// NTM (11731650_a_at) / Fold change /veh LOC100653217 /// NTM (11731650_a_at) / RFU MAPK11 (11762145_a_at) / Fold change /veh MAPK11 (11762145_a_at) / RFU FIZ1 (11724087_x_at) / Fold change /veh FIZ1 (11724087_x_at) / RFU OASL (11726364_x_at) / Fold change /veh OASL (11726364_x_at) / RFU SOX15 (11748057_x_at) / Fold change /veh SOX15 (11748057_x_at) / RFU CD79A (11719716_a_at) / Fold change /veh CD79A (11719716_a_at) / RFU HIST1H1D (11736915_at) / Fold change /veh HIST1H1D (11736915_at) / RFU CASKIN2 (11723855_a_at) / Fold change /veh CASKIN2 (11723855_a_at) / RFU LOC730098 (11760151_x_at) / Fold change /veh LOC730098 (11760151_x_at) / RFU OR4N2 (11742367_at) / Fold change /veh OR4N2 (11742367_at) / RFU PRRT2 (11749266_a_at) / Fold change /veh PRRT2 (11749266_a_at) / RFU SNX32 (11753110_a_at) / Fold change /veh SNX32 (11753110_a_at) / RFU CDHR5 (11726645_a_at) / Fold change /veh CDHR5 (11726645_a_at) / RFU RCAN1 (11760418_a_at) / Fold change /veh RCAN1 (11760418_a_at) / RFU FAM167A (11723789_a_at) / Fold change /veh FAM167A (11723789_a_at) / RFU FAM26E (11764081_at) / Fold change /veh FAM26E (11764081_at) / RFU ISYNA1 (11749810_s_at) / Fold change /veh ISYNA1 (11749810_s_at) / RFU ACY1 (11761880_at) / Fold change /veh ACY1 (11761880_at) / RFU 11764098_at / Fold change /veh 11764098_at / RFU SAMD14 (11745864_x_at) / Fold change /veh SAMD14 (11745864_x_at) / RFU NPB (11741838_a_at) / Fold change /veh NPB (11741838_a_at) / RFU TMPRSS6 (11731388_a_at) / Fold change /veh TMPRSS6 (11731388_a_at) / RFU KRTAP10-2 (11738614_at) / Fold change /veh KRTAP10-2 (11738614_at) / RFU ARHGAP8 /// PRR5-ARHGAP8 (11727945_x_at) / Fold change /veh ARHGAP8 /// PRR5-ARHGAP8 (11727945_x_at) / RFU KRTAP5-7 /// NADSYN1 (11734609_at) / Fold change /veh KRTAP5-7 /// NADSYN1 (11734609_at) / RFU RASL12 (11751679_a_at) / Fold change /veh RASL12 (11751679_a_at) / RFU CDKN2B (11736163_a_at) / Fold change /veh CDKN2B (11736163_a_at) / RFU PRF1 (11729649_at) / Fold change /veh PRF1 (11729649_at) / RFU, ZNF638 /// ZNF638-IT1 / Fold change vs veh, ZNF638 /// ZNF638-IT1 / RFU, PANK3 / Fold change vs veh, PANK3 / RFU, SH3YL1 / Fold change vs veh, SH3YL1 / RFU, ZEB2 / Fold change vs veh, ZEB2 / RFU, NRIP1 / Fold change vs veh, NRIP1 / RFU, PTTG1IP / Fold change vs veh, PTTG1IP / RFU, CAPN2 / Fold change vs veh, CAPN2 / RFU, MED14 / Fold change vs veh, MED14 / RFU, SNORA58 / Fold change vs veh, SNORA58 / RFU, C1orf63 / Fold change vs veh, C1orf63 / RFU, LRRFIP1 / Fold change vs veh, LRRFIP1 / RFU, NDUFAF7 / Fold change vs veh, NDUFAF7 / RFU, SLC12A2 / Fold change vs veh, SLC12A2 / RFU, IBTK / Fold change vs veh, IBTK / RFU, ESF1 / Fold change vs veh, ESF1 / Fold change vs veh, TMEM50B / RFU, TAOK1 / Fold change vs veh, TAOK1 / RFU, ACBD3 / Fold change vs veh, ACBD3 / RFU, TMA16 / Fold change vs veh, TMA16 / RFU, RWDD3 / Fold change vs veh, RWDD3 / RFU, BCAT1 / Fold change vs veh, BCAT1 / RFU, EDEM3 / Fold change vs veh, EDEM3 / RFU, TMEM33 / Fold change vs veh, TMEM33 / RFU, WDR75 / Fold change vs veh, WDR75 / RFU, AHCTF1 / Fold change vs veh, AHCTF1 / RFU, TFRC / Fold change vs veh, TFRC / RFU, ZDHHC17 / Fold change vs veh, ZDHHC17 / RFU, NOM1 / Fold change vs veh, NOM1 / RFU, ARL8B / Fold change vs veh, ARL8B / RFU, ZBTB11 / Fold change vs veh, ZBTB11 / RFU, TAMM41 / Fold change vs veh, TAMM41 / RFU, KIAA1704 /// LOC100996395 / Fold change vs veh, KIAA1704 /// LOC100996395 / RFU, ING1 / Fold change vs veh, ING1 / RFU, TRMT61B / Fold change vs veh, TRMT61B / RFU, FUBP3 / Fold change vs veh, FUBP3 / RFU, TP53 / Fold change vs veh, TP53 / RFU, TNKS2 / Fold change vs veh, TNKS2 / RFU, ZFP14 / Fold change vs veh, ZFP14 / RFU, ACTR2 / Fold change vs veh, ACTR2 / RFU, PPP3R1 / Fold change vs veh, PPP3R1 / RFU, PIK3R1 / Fold change vs veh, PIK3R1 / RFU, HNRNPA1 / Fold change vs veh, HNRNPA1 / RFU, RNF170 / Fold change vs veh, RNF170 / RFU, ZNF28 / Fold change vs veh, ZNF28 / RFU, RNGTT / Fold change vs veh, RNGTT / RFU, OGT / Fold change vs veh, OGT / RFU, BRD1 / Fold change vs veh, BRD1 / RFU, MARS / Fold change vs veh, MARS / RFU, ZNF655 / Fold change vs veh, ZNF655 / RFU, FAHD1 / Fold change vs veh, FAHD1 / RFU, BDP1 / Fold change vs veh, BDP1 / RFU, LRRCC1 / Fold change vs veh, LRRCC1 / RFU, ARID1A / Fold change vs veh, ARID1A / RFU, ZNF146 / Fold change vs veh, ZNF146 / RFU, ZNF330 / Fold change vs veh, ZNF330 / RFU, GPN3 / Fold change vs veh, GPN3 / RFU, C9orf123 / Fold change vs veh, C9orf123 / RFU, N4BP2L2 / Fold change vs veh, N4BP2L2 / RFU, ARFIP1 / Fold change vs veh, ARFIP1 / RFU, FAM179B / Fold change vs veh, FAM179B / RFU, BCL10 / Fold change vs veh, BCL10 / RFU, UHRF1BP1L / Fold change vs veh, UHRF1BP1L / RFU, BET1 / Fold change vs veh, BET1 / RFU, CNOT2 / Fold change vs veh, CNOT2 / RFU, ZNF268 / Fold change vs veh, ZNF268 / Fold change vs veh, ZNF507 / RFU, DGCR2 / Fold change vs veh, DGCR2 / RFU, WDSUB1 / Fold change vs veh, WDSUB1 / Fold change vs veh, HSP90B1 /// MIR3652 / RFU, ADSS / Fold change vs veh, ADSS / RFU, GK / Fold change vs veh, GK / RFU, ZNF148 / Fold change vs veh, ZNF148 / RFU, TAF9 / Fold change vs veh, TAF9 / RFU, SLC1A5 / Fold change vs veh, SLC1A5 / RFU, SLMO2 / Fold change vs veh, SLMO2 / RFU, ABCC4 / Fold change vs veh, ABCC4 / RFU, LOC101060439 /// RAP1B / Fold change vs veh, LOC101060439 /// RAP1B / RFU, RFX7 / Fold change vs veh, RFX7 / RFU, GTPBP10 / Fold change vs veh, GTPBP10 / RFU, CNEP1R1 / Fold change vs veh, CNEP1R1 / RFU, BIVM-ERCC5 /// ERCC5 / Fold change vs veh, BIVM-ERCC5 /// ERCC5 / RFU, ILF3 / Fold change vs veh, ILF3 / RFU 11762660_at / Fold change /veh 11762660_at / RFU VCAN (11757783_s_at) / Fold change /veh VCAN (11757783_s_at) / RFU DDX43 (11728927_at) / Fold change /veh DDX43 (11728927_at) / RFU KRT8 (11758188_x_at) / Fold change /veh KRT8 (11758188_x_at) / RFU NKD1 (11759106_at) / Fold change /veh NKD1 (11759106_at) / RFU SRD5A1 (11742802_a_at) / Fold change /veh SRD5A1 (11742802_a_at) / RFU TPSAB1 /// TPSB2 (11721975_s_at) / Fold change /veh TPSAB1 /// TPSB2 (11721975_s_at) / RFU GSTM3 (11746129_a_at) / Fold change /veh GSTM3 (11746129_a_at) / RFU IL23R (11737362_x_at) / Fold change /veh IL23R (11737362_x_at) / RFU TMEM51 (11727254_a_at) / Fold change /veh TMEM51 (11727254_a_at) / RFU PIWIL2 (11732686_x_at) / Fold change /veh PIWIL2 (11732686_x_at) / RFU ORM1 (11744905_x_at) / Fold change /veh ORM1 (11744905_x_at) / RFU CCDC152 (11743942_at) / Fold change /veh CCDC152 (11743942_at) / RFU ECM1 (11717891_a_at) / Fold change /veh ECM1 (11717891_a_at) / RFU IL23R (11748794_a_at) / Fold change /veh IL23R (11748794_a_at) / RFU TNFAIP8L3 (11732012_x_at) / Fold change /veh TNFAIP8L3 (11732012_x_at) / RFU MBOAT4 (11741988_at) / Fold change /veh MBOAT4 (11741988_at) / RFU 11764193_at / Fold change /veh 11764193_at / RFU TMEM53 (11763286_at) / Fold change /veh TMEM53 (11763286_at) / RFU MAGEB2 (11727129_at) / Fold change /veh MAGEB2 (11727129_at) / RFU TMEM200A (11744735_a_at) / Fold change /veh TMEM200A (11744735_a_at) / RFU CCDC152 (11751479_a_at) / Fold change /veh CCDC152 (11751479_a_at) / RFU FAM211A (11726209_a_at) / Fold change /veh FAM211A (11726209_a_at) / RFU RGS16 (11746705_a_at) / Fold change /veh RGS16 (11746705_a_at) / RFU VCAN (11755009_s_at) / Fold change /veh VCAN (11755009_s_at) / RFU RHOB (11743442_s_at) / Fold change /veh RHOB (11743442_s_at) / RFU RGS16 (11720943_a_at) / Fold change /veh RGS16 (11720943_a_at) / RFU RGS16 (11720944_at) / Fold change /veh RGS16 (11720944_at) / RFU, VPS4B / Fold change vs veh, VPS4B / RFU, CREB1 / Fold change vs veh, CREB1 / RFU, DNAJC13 / Fold change vs veh, DNAJC13 / RFU, GNAQ / Fold change vs veh, GNAQ / RFU, CDK5R1 / Fold change vs veh, CDK5R1 / RFU, ZRANB3 / Fold change vs veh, ZRANB3 / RFU, CUL4A / Fold change vs veh, CUL4A / RFU, CCNY / Fold change vs veh, CCNY / RFU, UFL1 / Fold change vs veh, UFL1 / RFU, COG3 / Fold change vs veh, COG3 / RFU, DIAPH2 / Fold change vs veh, DIAPH2 / RFU, SKA2 / Fold change vs veh, SKA2 / RFU, AFF3 / Fold change vs veh, AFF3 / RFU, LMF1 / Fold change vs veh, LMF1 / RFU, IPO11 / Fold change vs veh, IPO11 / RFU, DFFB / Fold change vs veh, DFFB / RFU, FOXP1 / Fold change vs veh, FOXP1 / RFU, CARD8 / Fold change vs veh, CARD8 / RFU, STRN3 / Fold change vs veh, STRN3 / RFU, ADK / Fold change vs veh, ADK / RFU, RASSF2 / Fold change vs veh, RASSF2 / RFU, WIPF1 / Fold change vs veh, WIPF1 / RFU, LARP1B / Fold change vs veh, LARP1B / RFU, RASA1 / Fold change vs veh, RASA1 / RFU, RB1 / Fold change vs veh, RB1 / RFU, PPFIA1 / Fold change vs veh, PPFIA1 / RFU, MAT2A / Fold change vs veh, MAT2A / RFU, CCT5 / Fold change vs veh, CCT5 / RFU, WDR92 / Fold change vs veh, WDR92 / RFU, CUX1 / Fold change vs veh, CUX1 / RFU, TTC7A / Fold change vs veh, TTC7A / RFU, TMEM135 / Fold change vs veh, TMEM135 / RFU, DEPTOR / Fold change vs veh, DEPTOR / RFU, CPM / Fold change vs veh, CPM / RFU, DNAJB6 / Fold change vs veh, DNAJB6 / RFU, CACNA2D3 / Fold change vs veh, CACNA2D3 / RFU, DTX4 / Fold change vs veh, DTX4 / RFU, TFCP2 / Fold change vs veh, TFCP2 / RFU, GMCL1 /// GMCL1P1 / Fold change vs veh, GMCL1 /// GMCL1P1 / RFU, AEBP2 / Fold change vs veh, AEBP2 / RFU, SNHG1 /// SNORD22 /// SNORD25 /// SNORD26 /// SNORD27 /// SNORD28 /// SNORD29 /// SNORD31 / Fold change vs veh, SNHG1 /// SNORD22 /// SNORD25 /// SNORD26 /// SNORD27 /// SNORD28 /// SNORD29 /// SNORD31 / Fold change (Aza/veh), C12orf56 (ProbeSet 11735607_a_at) / Fold change (ACY-1035/veh), C12orf56 (ProbeSet 11735607_a_at) / Fold change (Aza/veh), FGFR1OP (ProbeSet 11751329_s_at) / Fold change (ACY-1035/veh), FGFR1OP (ProbeSet 11751329_s_at) / Fold change (Aza/veh), VPS36 (ProbeSet 11739960_a_at) / Fold change (ACY-1035/veh), VPS36 (ProbeSet 11739960_a_at) / RFU SYPL1 (11715823_x_at) / Fold change /veh SYPL1 (11715823_x_at) / RFU IGFBP7 (11715501_s_at) / Fold change /veh IGFBP7 (11715501_s_at) / RFU REEP3 (11722064_at) / Fold change /veh REEP3 (11722064_at) / RFU IGLL1 (11728026_x_at) / Fold change /veh IGLL1 (11728026_x_at): dose or concentration left out as unconfirmed
# Settings: ProbeSet 11720566_at; LIST D
structure (smiles),measurement,value
Nc1ncn([C@@H]2O[C@H](CO)[C@@H](O)[C@H]2O)c(=O)n1 [azacitidine],"RFU, BCAT1",650.05 RFU
